Legend:
[1] = Tissue distribution in rodents; assay type: in vivo
Source text: Infiltration of various immune cell populations, resulting in inflammation, is a central pathogenic feature following acute- and chronic liver injury. Chronic liver inflammation leads to continuous hepatocyte injury which can lead to fibrosis, cirrhosis, ESLD, and HCC. Interactions between intra-hepatic immune cells lead to increased activation and migration of Kupffer cells and HSCs and are critical events for developing liver fibrosis. Additionally, there is increasing evidence of the role of CCR2 and CCR5 in the pathogenesis of liver fibrosis. These members of the C-C chemokine family are expressed by pro-fibrogenic cells including pro-inflammatory monocytes and macrophages, Kupffer cells, and HSCs. CCR2 signaling plays an important role in the pathogenesis of renal fibrosis through regulation of bone marrow-derived fibroblasts. CCR2- and CCR5-positive monocytes as well as CCR5-positive T lymphocytes are attracted by locally released MCP-1 and RANTES, and can contribute to chronic interstitial inflammation in the kidney. […] Disruption of the intestinal microbiota and its downstream effects on the gut-liver axis both play an important role in metabolic disorders such as obesity, non-alcoholic fatty liver disease (NAFLD) and non-alcoholic steatohepatitis (NASH).

[2] = tested on: STAM mouse model of Non-alcoholic Steatohepatitis; assay: STAM mouse model of NASH, anti-HCC effects at week 18; details: for Mice that died (survival analysis): 6 to 18 weeks; for Body weight / CD31-positive area / Liver weight / Liver-to-body weight ratio / Maximum diameter of visible tumor nodules / Number of visible tumor nodules: mean ± SD
Protocol: Group 1-Vehicle: Eighteen NASH mice were orally administered vehicle at a volume of 10 mL/kg twice daily (9:00 and 19:00) from 6 weeks of age.

[3] = tested on: thioacetamide (TAA)-induced hepatic fibrosis; assay: Rat model of thioacetamide-induced liver fibrosis and cirrhosis; assay type: in vivo, Sprague-Dawley rats; details: for Reduction of ca-SMA / Reduction of collagen type 1 protein levels / Reduction of fibrosis by collagen morphometry: first 8 weeks
Protocol: Fibrosis was induced in male Sprague-Dawley rats by intraperitoneal administration of TAA 150 mg/kg 3 times/week for 8 weeks. […] Biochemical, gene expression and histologic evaluations of the liver were conducted.

[4] = tested on: adults with CCR5 tropic HIV-1; assay: Study 202 post-hoc APRI and FIB-4 fibrosis index scores; assay type: in vivo, human
Protocol: APRI and FIB-4 scores were calculated. Change in score category from baseline (BL) to Weeks 24 and 48 was assessed in patients with non-missing data. Correlations between changes from BL in APRI and FIB-4 scores, and MCP-1 (CCR2 ligand) and sCD14 (inflammatory biomarker) levels were evaluated.

[5] = Chronic (3- and 9-month) monkey toxicity studies; assay type: in vivo
[6] = biological target: CCR2 (Homo sapiens, UniProt P41597); assay: CCR2 antagonism in in vitro, ex vivo and clinical studies; details: Studies 652-2-201 and 652-2-202
Sequence of CCR2 (P41597 whole entry): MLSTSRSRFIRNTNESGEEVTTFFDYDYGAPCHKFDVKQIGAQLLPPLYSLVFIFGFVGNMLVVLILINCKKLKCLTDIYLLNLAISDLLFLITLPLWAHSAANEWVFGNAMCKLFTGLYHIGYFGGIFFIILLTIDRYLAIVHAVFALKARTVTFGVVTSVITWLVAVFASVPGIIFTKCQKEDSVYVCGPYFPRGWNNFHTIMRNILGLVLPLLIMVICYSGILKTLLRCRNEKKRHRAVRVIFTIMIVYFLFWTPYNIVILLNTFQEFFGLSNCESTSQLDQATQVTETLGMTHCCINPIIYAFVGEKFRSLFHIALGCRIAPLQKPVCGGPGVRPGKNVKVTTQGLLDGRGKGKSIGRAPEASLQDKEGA
Source text: (§1) Clinical evidence of CCR2 and CCR5 antagonism was established by measuring changes from baseline in plasma MCP-1 (a ligand of CCR2) concentrations and changes in plasma HIV-RNA (CCR5 co-receptor required for HIV entry), respectively, in these 2 Phase 2 Studies.

[7] = biological target: CCR5 (Homo sapiens, UniProt P51681); assay: CCR5 antagonism in in vitro, ex vivo and clinical studies; details: Studies 652-2-201 and 652-2-202
Sequence of CCR5 (P51681 whole entry): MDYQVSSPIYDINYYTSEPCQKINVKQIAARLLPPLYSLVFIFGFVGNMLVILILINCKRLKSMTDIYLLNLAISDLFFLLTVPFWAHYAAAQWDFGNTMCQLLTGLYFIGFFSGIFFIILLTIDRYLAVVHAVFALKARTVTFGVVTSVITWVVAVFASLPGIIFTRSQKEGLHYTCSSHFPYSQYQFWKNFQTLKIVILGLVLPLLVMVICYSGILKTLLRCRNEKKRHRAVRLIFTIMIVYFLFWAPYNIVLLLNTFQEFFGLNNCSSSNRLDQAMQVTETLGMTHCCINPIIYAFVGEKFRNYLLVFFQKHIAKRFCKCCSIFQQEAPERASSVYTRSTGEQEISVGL
Source text: as §1

[8] = CVC plasma exposures in clinical studies; assay type: in vivo, human; details: same dosing conditions; Studies 652-1-111, 652-1-110, 652-2-202
[9] = CVC-high 100 mg/kg/day oral, week 18
[10] = CVC-high 100 mg/kg/day oral, week 18, listed as Cenicriviroc
[11] = CVC-low 20 mg/kg/day oral, week 18
[12] = CVC-low 20 mg/kg/day oral, week 18, listed as Cenicriviroc
[13] = Group 1a: CVC 30 mg/kg/day concurrently with TAA
[14] = Group 1b: CVC 100 mg/kg/day concurrently with TAA
[15] = Week 24, CVC pooled 100 and 200 mg, or EFV
[16] = Week 48, CVC pooled 100 and 200 mg, or EFV

CCCCOCCOc1ccc(-c2ccc3c(c2)C=C(C(=O)Nc2ccc([S@@+]([O-])Cc4cncn4CCC)cc2)CCCN3CC(C)C)cc1 [CVC, (S)-8-[4-(2-Butoxyethoxy)phenyl]-1-isobutyl-N-(4-{[(1-propyl-1H-imidazol-5-yl)methyl]sulfinyl}phenyl)-1,2,3,4-tetrahydro-1-benzazocine-5-carboxamide]
Tissue distribution [1]: high distribution in the liver, mesenteric lymph node, and intestine
Effect on NASH-derived HCC ([2]; CVC treatment groups, week 18): not observed
Mice that died (survival analysis) ([2]; CVC-high 100 mg/kg/day oral): Five out of twelve
Mice with GS-positive nodules [2, 9]: seven out of seven
Mice with HCC lesions (HE staining) [2, 9]: six out of seven
Body weight [2, 9]: 20.8 ± 2.7 g
CD31-positive area [2, 9]: 3.68±1.37%
Liver weight [2, 9]: 1817 ± 446 mg
Liver-to-body weight ratio [2, 9]: 8.8±2.3%
Maximum diameter of visible tumor nodules [2, 9]: 5.3±5.1 mm
Number of visible tumor nodules [2, 9]: 3.6±2.5
Body weight [2, 10]: 20.8 ± 2.7 g
CD31-positive area [2, 10]: 3.68 ± 1.37%
Liver weight [2, 10]: 1817 ± 446 mg
Liver-to-body weight ratio [2, 10]: 8.8 ± 2.3%
Maximum diameter of visible tumor nodules [2, 10]: 5.3 ± 5.1 mm
Number of visible tumor nodules [2, 10]: 3.6 ± 2.5
Mice that died (survival analysis) ([2]; CVC-low 20 mg/kg/day oral): Six out of twelve
Mice with GS-positive nodules [2, 11]: five out of six
Mice with HCC lesions (HE staining) [2, 11]: five out of six
Body weight [2, 11]: 22.9 ± 3.5 g
CD31-positive area [2, 11]: 1.47±1.10%
Liver weight [2, 11]: 1837 ± 410 mg
Liver-to-body weight ratio [2, 11]: 8.3±2.8%
Maximum diameter of visible tumor nodules [2, 11]: 4.8±5.4 mm
Number of visible tumor nodules [2, 11]: 1.5±1.9
Body weight [2, 12]: 22.9 ± 3.5 g
CD31-positive area [2, 12]: 1.47 ± 1.10%
Liver weight [2, 12]: 1837 ± 410 mg
Liver-to-body weight ratio [2, 12]: 8.3 ± 2.8%
Maximum diameter of visible tumor nodules [2, 12]: 4.8 ± 5.4 mm
Number of visible tumor nodules [2, 12]: 1.5 ± 1.9
Reduction of ca-SMA [3, 13]: 17%
Reduction of collagen type 1 protein levels [3, 13]: 30%
Reduction of fibrosis by collagen morphometry [3, 13]: 49%
Reduction of ca-SMA [3, 14]: 22%
Reduction of collagen type 1 protein levels [3, 14]: 12%
Reduction of fibrosis by collagen morphometry [3, 14]: 38%
Reduction in collagen ([3]; Group 2a: CVC 30 mg/kg/day during Weeks 4-8 (emerging fibrosis)): 36%
Effect on fibrogenic gene expression or fibrosis ([3]; Group 3: treatment Weeks 8-12, cirrhosis present): no significant effect of CVC on fibrogenic gene expression or fibrosis
Subjects in APRI category 0.5-1.5 [4, 15]: 7%
Subjects in APRI category <0.5 [4, 15]: 93%
Subjects in FIB-4 category 1.45-3.25 [4, 15]: 7%
Subjects in FIB-4 category <1.45 [4, 15]: 93%
Subjects with APRI decreased 1 category from baseline [4, 15]: 14%
Subjects with FIB-4 decreased 1 category from baseline [4, 15]: 13%
Subjects in APRI category 0.5-1.5 [4, 16]: 8%
Subjects in APRI category <0.5 [4, 16]: 91%
Subjects in APRI category >1.5 [4, 16]: 1%
Subjects in FIB-4 category 1.45-3.25 [4, 16]: 5%
Subjects in FIB-4 category <1.45 [4, 16]: 94%
Subjects in FIB-4 category >3.25 [4, 16]: 1%
Subjects with APRI decreased 1 category from baseline [4, 16]: 10%
Subjects with FIB-4 decreased 1 category from baseline [4, 16]: 14%
Subjects with improvements in APRI and FIB-4 scores over time ([4]; all CVC-treated subjects, pooled CVC 100 mg and 200 mg): ≥ 10%
Plasma MCP-1 levels over controls ([5]; 1000 mg/kg/day, chronic (3- and 9-month) monkey toxicity studies): ~5 fold
Inflammation in clinical pathology parameters or any tissue, including the liver, by microscopic evaluation ([5]; high dose of 1000 mg/kg/day): No indication of inflammation
Antagonism of CCR2 [6]: potent and concentration-dependent antagonism
Antagonism of CCR5 [7]: potent and concentration-dependent antagonism
CVC plasma exposures [8]: higher in non-HIV infected healthy volunteer subjects as compared to HIV-infected subjects
